Reference: patent US4001272A, “Herbicidal 2-fluoro-4-halo-phenyl-4,5,6,7-tetrahydro-2H-isoindole-1,3-diones” (E. I. Du Pont de Nemours and Company, priority 1974, dated 1977)

Experiments:
Type in all cases: in vivo
[1] = system: crabgrass (Digitaria sanquinalis); experiment: Test B: overall spray in carrot field after weed emergence, percent control of crabgrass; details: six weeks after treatment, 0.1% Tween 20
Excerpt: (§1) Test B involved a field sown to carrots and in which the following weed species emerged naturally: crabgrass (Digitaria sanquinalis), foxtails (Setaria spp.), barnyardgrass (Echinochloa crusgalli), pigweed (Amaranthus spp.), ragweed (Ambrosia artemisiifolia), velvetleaf (Abutilon theophrasti), smartweed (Polygonum spp.) and lambsquarters (Chenopodium album). Sixteen days after sowing, when all species of weeds had emerged, the plants were sprayed overall with a 50% wettable powder formulation of 2-(4-chloro-2-fluorophenyl)4,5,6,7-tetrahydro-2H-isoindole-1,3dione (Treatment I) in the form of an aqueous suspension, at rates of 0.5, 1.0, 2.0 and 4.0 kg/ha, and with 2-(4-chlorophenyl)-4,5,6,7-tetrahydro-2H-isoindole-1,3-dione (Treatment II) in the same form and at the same rates. The spray volume was 425 l/ha. The surfactant Tween 20* was added to all treatments in a concentration of 0.1% by weight. Six weeks after treatment, visual observations were made of percent weed control obtained and, for carrots, crop response.
(§2) *Tween 20 -- A trademark of ICI of America which is the reaction product of sorbitan monolaurate with an average of 20 moles of ethylene oxide.

[2] = system: pigweed (Amaranthus spp.); experiment: Test B: overall spray in carrot field after weed emergence, percent control of pigweed; details: six weeks after treatment, 0.1% Tween 20
Excerpt: as §1, §2

[3] = system: lambsquarters (Chenopodium album); experiment: Test B: overall spray in carrot field after weed emergence, percent control of lambsquarters; details: six weeks after treatment, 0.1% Tween 20
Excerpt: as §1, §2

carrots = experiment: Test B: overall spray in carrot field after weed emergence, crop response of carrots; details: six weeks after treatment, 0.1% Tween 20
Excerpt: as §1, §2

[4] = system: flower-of-an-hour (Hibiscus trionum); experiment: Test C: preemergence weed control in rice, flower-of-an-hour; details: 29 days after treatment
Excerpt: (§3) In test A, soybeans, peanuts, lima beans, green beans and squash were planted in a field infested with the following weed seeds: crabgrass (Digitaria sanquinalis), foxtails (Setaria spp.), barnyardgrass (Echinochloa crusgalli), pigweed (Amaranthus spp.), ragweed (Ambrosia artemisiifolia), velvetleaf (Abutilon theophrasti), purslane (Portulaca oleracea) and flower-of-an-hour (Hibiscus trionum). A 50% wettable powder formulation of 2-(4-chloro-2-fluorophenyl)-4,5,6,7-tetrahydro-2H-isoindole-1,3-dione was applied in the form of an aqueous suspension at rates of 0.125, 0.25, 0.5 and 1.0 kg/ha, each treatment replicated twice. The plots were rated for percent weed control and crop response seven weeks after treatment. Crop response was expressed on a scale of 0 = no injury to 10 = complete kill.
Test C concerned preemergence weed control in rice. The field selected contained seeds of the following weed species: crabgrass (Digitaria sanquinalis), foxtail (Setaria spp.), barnyardgrass (Echinochloa crusgalli), pigweed (Amaranthus spp.), ragweed (Ambrosia artemisiifolia), velvetleaf (Abutilon theophrasti), purslane (Portulaca oleracea) and flower-of-an-hour (Hibiscus trionum). Two varieties of rice, CSM-3 and Nato, were planted at depths of both 1 and 2 cm. In addition, rice seedlings of both varieties were transplanted into the field to be treated. Immediately thereafter, the plot was treated with an aqueous suspension of 2-(4-chloro-2-fluorophenyl)-4,5,6,7-tetrahydro-2H-isoindole-1,3-dione (Treatment I) at rates of 0.125 and 0.25 kg/ha, and an aqueous suspension of 2-(4-chlorophenyl)-4,5,6,7-tetrahydro-2H-isoindole-1,3dione (Treatment II) at rates of 0.25, 0.50, 1.00 and 2.00 kg/ha. The test chemicals had been formulated as 50% wettable powders. Overall spray volume was 540 l/ha. Ratings of percent weed control obtained and crop response were made 29 days after treatment, as described for test A. The ratings are summarized in the following Table III.

rice, variety Nato = experiment: Test C: crop response of rice Nato; details: 29 days, 0 = no injury to 10 = complete kill; for Crop Response, Rice Nato, 1 cm: planting depth 1 cm; for Crop Response, Rice Nato, 2 cm: planting depth 2 cm; for Crop Response, Rice Nato, T: transplanted
Excerpt: as §3, with “A 50% wettable powder formulation of 2-(4-chloro-2-fluorophenyl)-4,5,6,7-tetrahydro-2H-isoindole-1,3-dione was applied in the form of an aqueous suspension at rates of 0.125, 0.25, 0.5 and 1.0 kg/ha, each treatment replicated twice.” left out
Test C concerned preemergence weed control in rice. The field selected contained seeds of the following weed species: crabgrass (Digitaria sanquinalis), foxtail (Setaria spp.), barnyardgrass (Echinochloa crusgalli), pigweed (Amaranthus spp.), ragweed (Ambrosia artemisiifolia), velvetleaf (Abutilon theophrasti), purslane (Portulaca oleracea) and flower-of-an-hour (Hibiscus trionum). Two varieties of rice, CSM-3 and Nato, were planted at depths of both 1 and 2 cm. In addition, rice seedlings of both varieties were transplanted into the field to be treated. […] The test chemicals had been formulated as 50% wettable powders. Overall spray volume was 540 l/ha.

[5] = system: crabgrass (Digitaria sanquinalis); experiment: Test A: field test, percent weed control of crabgrass; details: seven weeks after treatment
Excerpt: as §3

[6] = system: velvetleaf (Abutilon theophrasti); experiment: Test A: field test, percent weed control of velvetleaf; details: seven weeks after treatment
Excerpt: as §3

[7] = system: purslane (Portulaca oleracea); experiment: Test A: field test, percent weed control of purslane; details: seven weeks after treatment
Excerpt: as §3

green beans = experiment: Test A: field test, crop response of green beans; details: seven weeks, 0 = no injury to 10 = complete kill
Excerpt: as §3

peanuts = experiment: Test A: field test, crop response of peanuts; details: seven weeks, 0 = no injury to 10 = complete kill
Excerpt: as §3

soybeans = experiment: Test A: field test, crop response of soybeans; details: seven weeks, 0 = no injury to 10 = complete kill
Excerpt: as §3

## O=C1C2=C(CCCC2)C(=O)N1c1ccc(Cl)cc1 [Treatment II, 2-(4-chlorophenyl)-4,5,6,7-tetrahydro-2H-isoindole-1,3-dione]
[1]; 0.5 kg/ha
  % Control, Crabgrass: 0%
[1]; 1.0 kg/ha
  % Control, Crabgrass: 20%
[1]; 2.0 kg/ha
  % Control, Crabgrass: 40%
[1]; 4.0 kg/ha
  % Control, Crabgrass: 60%
[2]; 0.5 kg/ha
  % Control, Pigweed: 50%
[2]; 1.0 kg/ha
  % Control, Pigweed: 70%
[2]; 2.0 kg/ha
  % Control, Pigweed: 90%
[2]; 4.0 kg/ha
  % Control, Pigweed: 99%
[3]; 0.5 kg/ha
  % Control, Lambsquarters: 70%
[3]; 1.0 kg/ha
  % Control, Lambsquarters: 80%
[3]; 2.0 kg/ha
  % Control, Lambsquarters: 99%
[3]; 4.0 kg/ha
  % Control, Lambsquarters: 99%
carrots; 0.5 kg/ha
  Crop Response, Carrots: 4
carrots; 1.0 kg/ha
  Crop Response, Carrots: 4
carrots; 2.0 kg/ha
  Crop Response, Carrots: 4
carrots; 4.0 kg/ha
  Crop Response, Carrots: 4
[4]; 0.25 kg/ha
  % Control, Flower-of-an-Hour: 98%
[4]; 0.50 kg/ha
  % Control, Flower-of-an-Hour: 100%
[4]; 1.0 kg/ha
  % Control, Flower-of-an-Hour: 100%
[4]; 2.0 kg/ha
  % Control, Flower-of-an-Hour: 100%
rice, variety Nato; 0.25 kg/ha
  Crop Response, Rice Nato, 1 cm: 5
  Crop Response, Rice Nato, 2 cm: 0
  Crop Response, Rice Nato, T: 1
rice, variety Nato; 0.50 kg/ha
  Crop Response, Rice Nato, 1 cm: 8
  Crop Response, Rice Nato, 2 cm: 1
  Crop Response, Rice Nato, T: 1
rice, variety Nato; 1.0 kg/ha
  Crop Response, Rice Nato, 1 cm: 9
  Crop Response, Rice Nato, 2 cm: 4
  Crop Response, Rice Nato, T: 1
rice, variety Nato; 2.0 kg/ha
  Crop Response, Rice Nato, 1 cm: 9
  Crop Response, Rice Nato, 2 cm: 6
  Crop Response, Rice Nato, T: 2

## O=C1C2=C(CCCC2)C(=O)N1c1ccc(Cl)cc1F [Treatment I, 2-(4-chloro-2-fluorophenyl)-4,5,6,7-tetrahydro-2H-isoindole-1,3-dione]
[5]; 0.125 kg/ha
  % Control, Crabgrass: 60%
[5]; 0.25 kg/ha
  % Control, Crabgrass: 94%
[5]; 0.50 kg/ha
  % Control, Crabgrass: 99%
[5]; 1.00 kg/ha
  % Control, Crabgrass: 99%
[6]; 0.125 kg/ha
  % Control, Velvetleaf: 90%
[6]; 0.25 kg/ha
  % Control, Velvetleaf: 99%
[6]; 0.50 kg/ha
  % Control, Velvetleaf: 100%
[6]; 1.00 kg/ha
  % Control, Velvetleaf: 100%
[7]; 0.125 kg/ha
  % Control, Purslane: 82%
[7]; 0.25 kg/ha
  % Control, Purslane: 97%
[7]; 0.50 kg/ha
  % Control, Purslane: 100%
[7]; 1.00 kg/ha
  % Control, Purslane: 100%
Green beans; 0.125 kg/ha
  Crop Response, Green beans: 2
Green beans; 0.25 kg/ha
  Crop Response, Green beans: 2.5
Green beans; 0.50 kg/ha
  Crop Response, Green beans: 8
Green beans; 1.00 kg/ha
  Crop Response, Green beans: 8.5
peanuts; 0.125 kg/ha
  Crop Response, Peanuts: 0
peanuts; 0.25 kg/ha
  Crop Response, Peanuts: 0
peanuts; 0.50 kg/ha
  Crop Response, Peanuts: 2
peanuts; 1.00 kg/ha
  Crop Response, Peanuts: 3.5
soybeans; 0.125 kg/ha
  Crop Response, Soybeans: 0
soybeans; 0.25 kg/ha
  Crop Response, Soybeans: 1.5
soybeans; 0.50 kg/ha
  Crop Response, Soybeans: 3
soybeans; 1.00 kg/ha
  Crop Response, Soybeans: 7.5
[1]; 0.5 kg/ha
  % Control, Crabgrass: 60%
[1]; 1.0 kg/ha
  % Control, Crabgrass: 85%
[1]; 2.0 kg/ha
  % Control, Crabgrass: 90%
[1]; 4.0 kg/ha
  % Control, Crabgrass: 100%
[2]; 0.5 kg/ha
  % Control, Pigweed: 92%
[2]; 1.0 kg/ha
  % Control, Pigweed: 99%
[2]; 2.0 kg/ha
  % Control, Pigweed: 100%
[2]; 4.0 kg/ha
  % Control, Pigweed: 100%
[3]; 0.5 kg/ha
  % Control, Lambsquarters: 100%
[3]; 1.0 kg/ha
  % Control, Lambsquarters: 100%
[3]; 2.0 kg/ha
  % Control, Lambsquarters: 100%
[3]; 4.0 kg/ha
  % Control, Lambsquarters: 100%
[4]; 0.125 kg/ha
  % Control, Flower-of-an-Hour: 100%
[4]; 0.25 kg/ha
  % Control, Flower-of-an-Hour: 100%
rice, variety Nato; 0.125 kg/ha
  Crop Response, Rice Nato, 1 cm: 3
  Crop Response, Rice Nato, 2 cm: 1
  Crop Response, Rice Nato, T: 0
rice, variety Nato; 0.25 kg/ha
  Crop Response, Rice Nato, 1 cm: 6
  Crop Response, Rice Nato, 2 cm: 2
  Crop Response, Rice Nato, T: 0
